Test results reported in patent US9486507B2, “Pro-coagulant compounds and methods of use thereof” (priority 2011, dated 2016).
Where “and” joins values, the source holds several entries; their conditions need not be identical. Equal entries are not always repeated.

Tests used:
thrombin = thrombin (Homo sapiens, UniProt P00734); conditions: thrombin 1.4 nM, conjugate A 10 μM, PBS, 37° C.
Protocol: Conjugate A (21 μL, 0.24 mM) in water was added to 476.5 μL PBS. […] The mixture was incubated at 37° C. Aliquots (60 μL) at various time points were quenched with 1 μL of hirudin (10 μM) and injected into the HPLC (C-18 column, CH3CN/H2O, 0 to 70% over 12 minutes, 60° C. 0.5 mL/min, ? =280 nm).

[1] = tested on: FVIII deficient human plasma; assay: Thrombin generation assay (TGA) in FVIII-deficient plasma; format: biochemical; parameters: key to Thrombin Above Baseline (nM): 1-10 nM (1) or 1-29 nM (2) (+); 11-20 nM (1) or 30-59 nM (2) (++); 21-30 nM (1) or 60-90 nM (2) (+++); >30 nM (1) or >90 nM (2) (++++); At or about baseline (−); conditions: HRF FVIII-deficient plasma (1)
mouse FIXa (mFIXa) = mouse FIXa (mFIXa) (Mus musculus, UniProt P16294); assay: FXa generation assay with mouse FIXa; format: biochemical; conditions: mFIXa compared to hFIXa
Description: The data confirms that the peptide was selected for binding to hFIXa.

FIXa [2] = molecular target: T1, FIXa (Homo sapiens, UniProt P00740); assay: Km/Kcat of FIXa for the substrate FX (FXa generation assay); format: biochemical; parameters: purchased Haematologic Technologies; conditions: compound 1 3 μM, compounds 3, 4, 5 1 μM, compound C 10 μM; for Km / kcat: hFIXa 10 nM, FX 10-1000 nM, PL, CaCl2; for Δ kcat: relative to buffer (1.0)
Protocol: To determine the Km and Kcat of FIXa or FVIIa for the substrate FX, the FXa generation assay described above was used with the following modifications. […] Reactions were set up with varying concentrations of FX ranging between 400 and 0.8 nM and the rates of FXa generation were determined for each peptide at the different FX concentrations tested as described above. […] The catalytic constant (Kcat) was calculated by normalizing the Vmax to the enzyme concentration.
FIXa was used at 10 nM, and FX was used at 10-1000 nM. The assay was performed in the presence of phospholipids (PL) and calcium chloride.

FIXa [3] = molecular target: T1, FIXa; assay: FXa generation assay with human FIXa; format: biochemical; parameters: purchased Haematologic Technologies; conditions: for Vmax: class symbols
[4] = tested on: 10% FVIII-deficient human plasma; assay: Modified activated partial thromboplastin time (aPTT*) assay; format: biochemical
Protocol: For the activated Partial Thromboplastin Time (aPTT) assay peptides to be tested were first diluted in 10% FVIII-deficient human plasma. For the aPTT* the peptides were diluted in 10% FVIII-deficient human plasma that contained traces of hFIXa (anywhere between 0 and 8.8 nM hFIXa depending on the assay) in Tris/NaCl/BSA buffer. The peptides were incubated for 10 minutes at room temperature and then assayed for clotting on a Sysmex instrument that recorded the clotting time observed for each sample. The times were compared to those of a standard curve derived from standards with known FVIII activity (U/mL) in order to determine the clotting outcome.

[5] = tested on: human HemA (severe) whole blood; assay: ROTEM in human HemA whole blood; format: biochemical; conditions: 30 min pre-incubation
platelets = assay: Platelet aggregation (aggregometer); format: cell-based; conditions: compound 5 about 30 μM; compound 22 10 μM and 30 μM
Description: ADP was used as a positive control for platelet aggregation.

FIXa [6] = molecular target: T1, FIXa; assay: FXa generation assay with compound 3, phospholipid and Gla-domain dependency; format: biochemical; conditions: compound 3 1 μM
Description: Formation of FXa was monitored using a chromogenic substrate as described in the FXa generation assay directly above (see b.1.).

[7] = tested on: FVIII deficient human plasma; assay: Rotational thromboelastometry (ROTEM) in FVIII-deficient human plasma; format: biochemical; conditions: for Clotting time, sec (avg.) / α-angle, degrees (avg.): human HemA plasma, lyophilized platelets, 10 fM lipTF
FIXa [8] = molecular target: T1, FIXa; assay: Incubation with FIXa in FXa generation assay buffer, LC-MS; format: biochemical; conditions: compound 3 100 μM; FIXa 0, 10 nM, 1 μM; with or without BSA; 3 hours
Protocol: The mixtures were then analyzed by LC-MS.

[9] = molecular target: T2, recombinant human factor IXa (hFIXa) (Homo sapiens, UniProt P00740); assay: Hydrogen/deuterium exchange mass spectrometry (H/DX-MS) of hFIXa; format: binding; conditions: hFIXa 1 μM with vs without compound 4 12 μM
T2 construct: purchased Hematologic Technologies
Protocol: Hydrogen/deuterium exchange mass spectrometry (H/DX-MS) was utilized to study the higher-order structural analysis of recombinant human factor IXa (hFIXa) in combination with and without compound 4. The general method can be found in the following references: Engen and Smith (2001) Anal. Chem. 73, 256A-265A.; Wales and Engen (2006) Mass Spectrum. Rev. 25, 158-170.
FIXa samples were equilibrated at ambient temperature (20±1° C.) for 1 hour before labeling with deuterated buffer (reaction buffers described above). The samples were then diluted 1:15 with deuterated buffer and incubated, allowing hydrogen exchange to occur for various amounts of time (10 seconds, 1, 10, 60, and 240 minutes), before the reaction was quenched with a 1:1 dilution of 200 mM citrate, 8 M guanidinium HCl, and 0.5 M TCEP, pH 2.33. Quenched samples were then incubated for 20 seconds before being further diluted 1:1 with 0.1% formic acid and immediately injected into the LC-MS system for analysis.
Approximately 7 μg of exchanged/quenched FIXa was injected onto an immobilized pepsin column where the digestion and peptide trapping were performed for 3 minutes with a flow rate of 0.1 mL/min in 0.1% formic acid at 10° C. […] Mass spectra were acquired and peptic peptides were identified using a combination of exact mass and MS, aided by Waters Identity software (Silva J C et al., 2006. Absolute quantification of proteins by LCMSE: a virtue of parallel MS acquisition. Mol Cell Proteomics, 5(1): p144). […] The amount of deuterium in each peptide was determined by subtracting the mass of the undeuterated peptide from the mass of the deuterated peptide, incubated at various HDX time points (which were uncorrected for any back exchange). […]
The difference in deuterium exchange between FIXa and FIXa with compound 4 was determined by subtracting the mass of each FIXa peptide from the mass of the corresponding FIXa with compound 4. […] The sum of these differences, across all time points, was calculated. […]

[10] = tested on: purified recombinant human coagulation factors; assay: Thrombin generation assay using purified hemostatic components; format: biochemical; conditions: compounds 1 μM; FVIII 0.1 or 1 IU/mL (FIG. 5)
[11] = molecular target: T3, FXa or the prothrombinase complex (Homo sapiens, UniProt P00742); assay: FXa / prothrombinase activity in purified thrombin generation assay; format: biochemical; conditions: 1 μM; FXa 0.05 ug/mL, with or without FV
T3 construct: Under these conditions FIXa cleaves the zymogen FX into the active form FXa
Protocol: In another experiment it was determined whether or not the compounds of the present disclosure directly enhance the activity of FXa or the prothrombinase complex.

[12] = FXa generation assay, 10 nM hFIXa, 100 nM hFX
[13] = aPTT*, D-amino acid scan of compound 1, listed as WT

Cys(Acm)-Gly-Gly-Gly-Gly-Dphe-Pip-Arg-PABC-rRAPGKLTCLASYCWLFWTGIA-NH2 (Disulfide) [conjugate A]
incubation time to full cleavage by thrombin (thrombin): about 60 min

KLTCLASYCWLF [Compound 1]
Thrombin Above Baseline (nM) ([1]; 2.5 μM): −
Thrombin Above Baseline (nM) ([1]; 5 μM): −
Thrombin Above Baseline (nM) ([1]; 10 μM): −
Thrombin Above Baseline (nM) ([1]; 20 μM): −
Vmax (mouse FIXa (mFIXa)): greatly reduced
Km (FIXa [2]): 0.024 ± 0.0048 µM
kcat (FIXa [2]): 0.00024 s⁻¹
Δ kcat (FIXa [2]): 160
Vmax (FIXa [3]; [12]): (+++) ((+++)>2)
Vmax (mOD/min min) (FIXa [3]; PL: No): 2.60 mOD/min min
Vmax (mOD/min min) (FIXa [3]; PL: Yes): 3.98 mOD/min min
Clotting time ([4]; aPTT* with FIXa, 5 μM): 47.9 s
Clotting time, sec ([4]; aPTT* with FIXa, 5 μM): 47.3; sec
Clotting time ([4]; aPTT* with FIXa, 10 μM): 43.3 s
Clotting time, sec ([4]; aPTT* with FIXa, 10 μM): 44.2; sec
Clotting time ([4]; aPTT* with FIXa, 20 μM): 43.8 s
Clotting time, sec ([4]; aPTT* with FIXa, 20 μM): 43.5; sec
Clotting time [4, 13]: 47.8 s
Clotting time, sec [4, 13]: 47.9; sec
Clotting time ([4]; aPTT*, FIXa 1 nM): 107.4 s
Clotting time, sec ([4]; aPTT*, FIXa 1 nM): 105.8; sec
Clotting time ([4]; aPTT*, FIXa 2 nM): 82.8 s
Clotting time, sec ([4]; aPTT*, FIXa 2 nM): 84.4; sec
Clotting time ([4]; aPTT*, FIXa 4 nM): 50.6 s
Clotting time, sec ([4]; aPTT*, FIXa 4 nM): 50.9; sec
Clotting time ([4]; aPTT*, FIXa 8 nM): 40.6 s
Clotting time, sec ([4]; aPTT*, FIXa 8 nM): 40.1; sec

PRIRTVGPGSRSASGKLTCLASYCWLFWTGIA [Compound 21]
Clotting time, sec ([5]; 2.5 μM): 1,057 sec and 1,090 sec
α-angle, degrees ([5]; 2.5 μM): 32 degrees
Clotting time ([5]; 5 μM): 930 s
α-angle, degrees ([5]; 5 μM): 32 degrees
Clotting time ([5]; 10 μM): 748 s and 703 s
α-angle, degrees ([5]; 10 μM): 44 degrees and 52 degrees
Clotting time ([5]; 20 μM): 952 s and 625 s
α-angle, degrees ([5]; 20 μM): 42 degrees and 43 degrees
Vmax (FIXa [3]; [12]): (++++) ((++++)>3)

PRIRTVGPGSRSASGKSTCLASYCWLFWTGIA [Compound 22]
induction of platelet aggregation (platelets): did also not induce platelet aggregation

RRAPGKLQCLASYCWLFWTGIA [Compound 3]
Percentage of control (FXa generation) (FIXa [6]; +PL): 100%
Percentage of control (FXa generation) (FIXa [6]; +PL +anti-FIX IgG (Gla)): 58.0%
Percentage of control (FXa generation) (FIXa [6]; −PL): 90%
clotting time and α-angle with neutralizing anti-FVIII antibody ([7]; 10 uM, polyclonal sheep IgG against human FVIII, 1:100): independent of residual FVIII
clotting time compared with FVIII (100% FVIII = 1 IU/mL) ([7]; compound 3 at 5 μM, faster than): > 100 % FVIII
α-angle corresponding to FVIII ([7]; compound 3 at 10 μM): about 20 % FVIII
Clotting time, sec (avg.) ([7]; 0.625 μM): 792 s
α-angle, degrees (avg.) ([7]; 0.625 μM): 29 degrees
Clotting time, sec (avg.) ([7]; 2.5 μM): 452 s
α-angle, degrees (avg.) ([7]; 2.5 μM): 33 degrees
Clotting time, sec (avg.) ([7]; 5 μM): 329 s
α-angle, degrees (avg.) ([7]; 5 μM): 38 degrees
Clotting time, sec (avg.) ([7]; 10 μM): 205 s
α-angle, degrees (avg.) ([7]; 10 μM): 51 degrees
Km (FIXa [2]): 0.016 ± 0.0035 µM
kcat (FIXa [2]): 0.000295 s⁻¹
Δ kcat (FIXa [2]): 197
Vmax (FIXa [3]; FXa generation assay using human FIXa): (++++) ((++++)>3)
Vmax (mOD/min min) (FIXa [3]; PL: No): 2.77 mOD/min min
Vmax (mOD/min min) (FIXa [3]; PL: Yes): 3.90 mOD/min min
substrate for FIXa (LC-MS) (FIXa [8]): not a substrate for FIXa
Clotting time ([4]; aPTT*, exogenous hFIXa 0.5 nM): 115.2 s
Clotting time, sec ([4]; aPTT*, exogenous hFIXa 0.5 nM): 115.6; sec
Clotting time ([4]; aPTT*, exogenous hFIXa 8.8 nM): 41.9 s
Clotting time, sec ([4]; aPTT*, exogenous hFIXa 8.8 nM): 45.4; sec

RRAPGKLTCLASYCWLFWTGIA [Compound 4]
FIXa peptide with most important significant difference in H/D exchange [9]: heavy chain peptide 177-185
difference index DI(1) [9]: 2
difference index DI(2) [9]: 0
Km (FIXa [2]): 0.011 ± 0.0027 µM
kcat (FIXa [2]): 0.000285 s⁻¹
Δ kcat (FIXa [2]): 190
Vmax (FIXa [3]; [12]): (+++) ((+++)>2)
thrombin generation [10]: induce thrombin generation
catalytic activity of FXa or the prothrombinase complex [11]: did not substantially increase the catalytic activity of FXa or the prothrombinase complex
